Test results published in PubChem BioAssay AID1259407 (Chemical Carcinogenesis Research Information System (CCRIS), 2018).
Activity calls are given as the source filed them. How the calls were made is not given here.

Test system: CCRIS mutagenicity, Ames/micronucleus/aberration tests
Assay: CCRIS mutagenicity studies
[1] = Test System: AMES SALMONELLA TYPHIMURIUM, Strain/Indicator: TA98, Metabolic Activation: HAMSTER, LIVER, S-9, AROCLOR 1254 (10%), Method: PREINCUBATION
[2] = Test System: AMES SALMONELLA TYPHIMURIUM, Strain/Indicator: TA98, Metabolic Activation: NONE, Method: PREINCUBATION
[3] = Test System: AMES SALMONELLA TYPHIMURIUM, Strain/Indicator: TA98, Metabolic Activation: RAT, LIVER, S-9, AROCLOR 1254 (10%), Method: PREINCUBATION
[4] = Test System: AMES SALMONELLA TYPHIMURIUM, Strain/Indicator: TA100, Metabolic Activation: HAMSTER, LIVER, S-9, AROCLOR 1254 (10%), Method: PREINCUBATION
[5] = Test System: AMES SALMONELLA TYPHIMURIUM, Strain/Indicator: TA100, Metabolic Activation: NONE, Method: PREINCUBATION
[6] = Test System: AMES SALMONELLA TYPHIMURIUM, Strain/Indicator: TA100, Metabolic Activation: RAT, LIVER, S-9, AROCLOR 1254 (10%), Method: PREINCUBATION
[7] = Test System: AMES SALMONELLA TYPHIMURIUM, Strain/Indicator: TA1535, Metabolic Activation: HAMSTER, LIVER, S-9, AROCLOR 1254 (10%), Method: PREINCUBATION
[8] = Test System: AMES SALMONELLA TYPHIMURIUM, Strain/Indicator: TA1535, Metabolic Activation: NONE, Method: PREINCUBATION
[9] = Test System: AMES SALMONELLA TYPHIMURIUM, Strain/Indicator: TA1535, Metabolic Activation: RAT, LIVER, S-9, AROCLOR 1254 (10%), Method: PREINCUBATION
[10] = Test System: AMES SALMONELLA TYPHIMURIUM, Strain/Indicator: TA1537, Metabolic Activation: HAMSTER, LIVER, S-9, AROCLOR 1254 (10%), Method: PREINCUBATION
[11] = Test System: AMES SALMONELLA TYPHIMURIUM, Strain/Indicator: TA1537, Metabolic Activation: NONE, Method: PREINCUBATION
[12] = Test System: AMES SALMONELLA TYPHIMURIUM, Strain/Indicator: TA1537, Metabolic Activation: RAT, LIVER, S-9, AROCLOR 1254 (10%), Method: PREINCUBATION
[13] = Test System: AMES SALMONELLA TYPHIMURIUM, Strain/Indicator: TA98, Metabolic Activation: NONE, Method: STANDARD PLATE
[14] = Test System: AMES SALMONELLA TYPHIMURIUM, Strain/Indicator: TA100, Metabolic Activation: NONE, Method: STANDARD PLATE
[15] = Test System: AMES SALMONELLA TYPHIMURIUM, Strain/Indicator: TA102, Metabolic Activation: NONE, Method: STANDARD PLATE
[16] = Test System: AMES SALMONELLA TYPHIMURIUM, Strain/Indicator: TA98, Metabolic Activation: RAT, LIVER, S-9, AROCLOR 1254, Method: STANDARD PLATE
[17] = Test System: AMES SALMONELLA TYPHIMURIUM, Strain/Indicator: TA100, Metabolic Activation: RAT, LIVER, S-9, AROCLOR 1254, Method: STANDARD PLATE
[18] = Test System: AMES SALMONELLA TYPHIMURIUM, Strain/Indicator: TA97, Metabolic Activation: NONE, Method: STANDARD PLATE
[19] = Test System: AMES SALMONELLA TYPHIMURIUM, Strain/Indicator: TA97, Metabolic Activation: RAT, LIVER, S-9, AROCLOR 1254, Method: STANDARD PLATE
[20] = Test System: AMES SALMONELLA TYPHIMURIUM, Strain/Indicator: TA102, Metabolic Activation: RAT, LIVER, S-9, AROCLOR 1254, Method: STANDARD PLATE

[O]=[Cd]
mutagenic call (End Point: In vivo micronucleus, Test System: Peripheral blood lymphocytes, Species: Dog, Strain/Sex: Mongrel/Male, Female, Route: Oral): active; positive in group 2
mutagenic call [1]: inactive; negative
mutagenic call [2]: inactive; negative
mutagenic call [3]: inactive; negative
mutagenic call [4]: inactive; negative
mutagenic call [5]: inactive; negative
mutagenic call [6]: inactive; negative
mutagenic call [7]: inactive; negative
mutagenic call [8]: inactive; negative
mutagenic call [9]: inactive; negative
mutagenic call [10]: inactive; negative
mutagenic call [11]: inactive; negative
mutagenic call [12]: inactive; negative

C=CC(=O)CC
mutagenic call [5]: active; positive
mutagenic call (Test System: AMES SALMONELLA TYPHIMURIUM, Strain/Indicator: TA100, Metabolic Activation: RAT, LIVER, S-9, AROCLOR, Method: PREINCUBATION): active; positive

CCN(CCCl)c1ccc(CCCNc2c3ccccc3nc3ccccc23)cc1
mutagenic call (Test System: AMES SALMONELLA TYPHIMURIUM, Strain/Indicator: DG1588, Metabolic Activation: NONE, Method: STANDARD PLATE): inactive; negative
mutagenic call (Test System: AMES SALMONELLA TYPHIMURIUM, Strain/Indicator: DG1592, Metabolic Activation: NONE, Method: STANDARD PLATE): inactive; negative
mutagenic call (Test System: AMES SALMONELLA TYPHIMURIUM, Strain/Indicator: DG1593, Metabolic Activation: NONE, Method: STANDARD PLATE): active; positive
mutagenic call [13]: active; positive
mutagenic call [14]: active; positive
mutagenic call [15]: inactive; negative
mutagenic call (Test System: AMES SALMONELLA TYPHIMURIUM, Strain/Indicator: TA104, Metabolic Activation: NONE, Method: STANDARD PLATE): active; positive
mutagenic call (Test System: AMES SALMONELLA TYPHIMURIUM, Strain/Indicator: TA1535, Metabolic Activation: NONE, Method: STANDARD PLATE): inactive; negative
mutagenic call (Test System: AMES SALMONELLA TYPHIMURIUM, Strain/Indicator: TA1537 (PKM101), Metabolic Activation: NONE, Method: STANDARD PLATE): active; positive
mutagenic call (Test System: AMES SALMONELLA TYPHIMURIUM, Strain/Indicator: TA1537, Metabolic Activation: NONE, Method: STANDARD PLATE): active; positive
mutagenic call (Test System: AMES SALMONELLA TYPHIMURIUM, Strain/Indicator: TA1538, Metabolic Activation: NONE, Method: STANDARD PLATE): inactive; negative
mutagenic call (Test System: AMES SALMONELLA TYPHIMURIUM, Strain/Indicator: TA1975 (PKM101), Metabolic Activation: NONE, Method: STANDARD PLATE): inactive; negative
mutagenic call (Test System: AMES SALMONELLA TYPHIMURIUM, Strain/Indicator: TA1975, Metabolic Activation: NONE, Method: STANDARD PLATE): inactive; negative
mutagenic call (Test System: AMES SALMONELLA TYPHIMURIUM, Strain/Indicator: TA1977, Metabolic Activation: NONE, Method: STANDARD PLATE): active; positive
mutagenic call (Test System: AMES SALMONELLA TYPHIMURIUM, Strain/Indicator: TA1978 (PKM101), Metabolic Activation: NONE, Method: STANDARD PLATE): active; positive
mutagenic call (Test System: AMES SALMONELLA TYPHIMURIUM, Strain/Indicator: TA1978, Metabolic Activation: NONE, Method: STANDARD PLATE): inactive; negative
mutagenic call (Test System: AMES SALMONELLA TYPHIMURIUM, Strain/Indicator: TA4001, Metabolic Activation: NONE, Method: STANDARD PLATE): active; positive
mutagenic call (Test System: AMES SALMONELLA TYPHIMURIUM, Strain/Indicator: TA4006, Metabolic Activation: NONE, Method: STANDARD PLATE): active; positive

CCOC(=O)CNC(=O)CBr
mutagenic call (Test System: AMES SALMONELLA TYPHIMURIUM, Strain/Indicator: TA100, Metabolic Activation: MOUSE, LIVER, S-9, AROCLOR 1254, Method: STANDARD PLATE): inactive; negative
mutagenic call [14]: inactive; negative

Nc1ccc(Cl)c(Cl)c1Cl
mutagenic call [13]: inactive; negative
mutagenic call [16]: inactive; negative
mutagenic call [14]: inactive; negative
mutagenic call [17]: inactive; negative

O=NN(CCO)CC(=O)O
mutagenic call [5]: active; positive

O=[N+]([O-])c1ccc(OC[C@H]2CO2)cc1
mutagenic call [14]: active; positive

COc1c(Cl)ccc(Cl)c1C(=O)O
mutagenic call [18]: inactive; negative
mutagenic call [19]: inactive; negative
mutagenic call [13]: inactive; negative
mutagenic call [16]: inactive; negative
mutagenic call [14]: inactive; negative
mutagenic call [17]: inactive; negative
mutagenic call [15]: inactive; negative
mutagenic call [20]: inactive; negative
mutagenic call (Test System: UDS HUMAN LYMPHOCYTES, Strain/Indicator: THY INCORP (NON-S-PHASE), Metabolic Activation: NONE, Method: LIQUID SCINTILLATION COUNTING): inactive; negative
mutagenic call (Test System: UDS HUMAN LYMPHOCYTES, Strain/Indicator: THY INCORP (NON-S-PHASE), Metabolic Activation: RAT, LIVER, S-9, Method: LIQUID SCINTILLATION COUNTING): active; positive

CCOC(=O)c1[nH]c2ccccc2c1N=Cc1ccc([N+](=O)[O-])cc1
mutagenic call [18]: inactive; negative
mutagenic call [19]: inactive; negative
mutagenic call [13]: inactive; negative
mutagenic call [16]: active; positive
mutagenic call [14]: inactive; negative
mutagenic call [17]: inactive; negative
mutagenic call [15]: inactive; negative
mutagenic call [20]: inactive; negative

CNc1ccc2ncc(C)nc2c1C
mutagenic call [2]: inactive; negative
mutagenic call (Test System: AMES SALMONELLA TYPHIMURIUM, Strain/Indicator: TA98, Metabolic Activation: RAT, LIVER, S-9, PCB, Method: PREINCUBATION): active; positive
mutagenic call [5]: inactive; negative
mutagenic call (Test System: AMES SALMONELLA TYPHIMURIUM, Strain/Indicator: TA100, Metabolic Activation: RAT, LIVER, S-9, PCB, Method: PREINCUBATION): active; positive

NCCCN
mutagenic call [1]: inactive; negative
mutagenic call [2]: inactive; negative
mutagenic call [3]: inactive; negative
mutagenic call [4]: inactive; negative
mutagenic call [5]: inactive; negative
mutagenic call [6]: inactive; negative
mutagenic call [7]: inactive; negative
mutagenic call [8]: inactive; negative
mutagenic call [9]: inactive; negative
mutagenic call [10]: inactive; negative
mutagenic call [11]: inactive; negative
mutagenic call [12]: inactive; negative

CCCCCCOCC1CO1 (stereo not given)
mutagenic call [5]: active; positive
mutagenic call [6]: inactive; negative
mutagenic call [7]: active; positive
mutagenic call [8]: active; positive
mutagenic call [9]: active; positive
